Laboratory results taken from US5972946A, “Acetamide derivative, process for preparing the same, and a pharmaceutical composition containing the same” (Dainippon Pharmaceutical Co., Ltd., priority 1995, dated 1999).

Key:
Bacillus subtilis = conditions: Pharmazie, 43, 537-538 (1988); cited from earlier work
[1] = Light and dark box test (anti-anxiety effect); format: in vivo, mouse (Std-ddY, male); conditions: Mus musculus, 0.5 h; oral, 30 min before test; mice; p<0.05 vs vehicle; read-out: Anti-anxiety effect MED (minimum effective dose)
From the text: Experiment 2: Light and dark box test (anti-anxiety effect)
Anti-anxiety effect of test compounds was examined in a box with light and dark compartments according to the method of Crawley, J. and Goodwin, F. K. [cf. Pharmacol. Biochem. Behav. 13, 167-170 (1980)] with slight modification.
Light and dark box test is a useful, simple and handy method for behaviorally and pharmacologically examining anti-anxiety effect of the drugs, by utilizing the habit of rodents such as mice and rats, etc. which prefer to stay in a dark place, and regarding as positive drug effect the increase of the relative stay of the animals in the light compartment which is an uncomfortable place for the animals.
Light and dark box test was carried out using the test box device (35×15×17 cm) which comprises: a light compartment (20×15×17 cm) consisting of transparent acrylic plates and highly illuminated by an incandescent lamp (1,700 lux); a dark compartment (15×15×17 cm) being made of black acrylic plates connected to the light compartment; and at the boundary of compartments, an opening (4.4×5 cm) in which mice can go through freely between two compartments.
Male mice of Std-ddY strain weighing 25-30 g were used in a group of 10. Each trial was started by placing a mouse in the center of the light compartment 30 minutes after oral administration of a test compound, and the time spent by the mouse in the light compartment during a 5 minute observation period was measured, and the rate of the stay of mice in the light compartment to the whole time spent in the experiment was calculated. The increasing rate of the relative stay of the test compound to that of the vehicle control group was yielded, based on the rate of the stay of mice in the light compartment.
The anti-anxiety effect of the test compound was represented by the minimum effectivetive dose (MED) at which the increasing rate of the relative stay was regarded statistically as significant (Williams-Wilcoxon's test, p<0.05).

[2] = target: peripheral (ω3) benzodiazepine (BZ) receptor (Rattus norvegicus, UniProt P16257); test: BZω3 (peripheral-type) benzodiazepine receptor binding assay
[3] = Collagen-induced arthritis inhibitory test 2; format: in vivo, mouse (DBA/1j, female); conditions: for effect on collagen-induced arthritis inhibitory test (conclusion): experiment 5, 10 mg/kg oral; for suppression of arthritis as compared with control: Example 165: at least until 34th day
Protocol: Experiment 5: Collagen-induced arthritis inhibitory test 2
Collagen-induced arthritis inhibitory test was carried out according to Kakimoto, K. et al. (cf. above reference of Kakimoto, K. et al.) with slight modification. Type II collagen from bovine joints (product of the Collagen Research Center, Japan) was emulsified in complete Freund's adjuvant (product of DIFCO Lab., U.S.A.). Female mice of DBA/1j strain (product of Nippon Charles River, Japan) were immunized by injection at the base of the tail with 150 μg of the emulsified collagen. After twenty one days from the immunization, arthritis was induced by a booster immunization of 150 μg of the emulsified collagen prepared in the same manner as above at the base of the tail again. Test compounds were administered orally at a dose of 10 mg/kg on 5 consecutive days in a week for 8 weeks, beginning from the day before the immunization. Mice were monitored visually for arthritis once a week beginning from the day of the booster immunization. The severity of arthritis was estimated by the sum of the scores of all 4 paws.

[4] = Isoniazid-induced clonic convulsion test (anti-convulsant effect); format: in vivo, mouse (Std-ddY, male); conditions: Mus musculus, 0.5 h; oral, 30 min before isoniazid 200 mg/kg s.c.; mice; read-out: Anti-isoniazid effect ED25 (dose which prolonged the onset time of clonic convulsion by 25%)
From the text: Experiment 3: Isoniazid-induced clonic convulsion test (anti-convulsant effect)
Isoniazid inhibits glutamate decarboxylase which catalyzes GABA synthesis, deases brain GABA levels, and induces clonic convulsion. According to the method of Auta, J. et al. [cf. J. Pharmacol. Exp. Ther. 265, 649-656 (1993)] with slight modification, we examined antagonistic effect of the test compounds on isoniazid-induced clonic convulsion. […] Those are BZ anxiolytics represented by diazepam, neurosteroids such as allopregnanolone, allotetrahydrodeoxycortico-sterone(THDOC) and BZω3 receptor agonists which enhance the synthesis of neurosteroids.
Male mice of Std-ddY strain weighing 22-24 g were used in a group of 6. Thirty minutes after oral administration of the test compounds, mice were injected with isoniazid (200 mg/kg, s.c.), and immediately thereafter, placed individually in acrylic observation cages. The onset time of clonic convulsion was measured (cut-off time: 90 minutes). The latency in the control group was about 40 minutes.
Anti-isoniazid effect of the test compounds was expressed as the dose which prolonged the onset time by 25% compared to that in the vehicle group (ED25). The ED25 value was calculated according to the Litchfield-Wilcoxon's method.

[5] = Collagen-induced arthritis inhibitory test 1; format: in vivo, mouse (DBA/1j, male); conditions: for severity of arthritis (arthritic score) versus control group / onset of arthritis delayed until (days after the booster immunization): 10 mg/kg oral daily; for onset of arthritis delayed until (days after the booster immunization): control onset on 28th day; for effect on collagen-induced arthritis inhibitory test (conclusion): experiment 4, 10 mg/kg oral
Protocol: Experiment 4: Collagen-induced arthritis inhibitory test 1
Collagen-induced arthritis inhibitory test is an experimental model for rheumatoid arthritis reported by Trethan, D. E. et al. [cf. […] J. Immunol., 140, 78-83 (1988)].
Collagen-induced arthritis inhibitory test was carried out according to Kakimoto, K. et al. (cf. above reference of Kakimoto, K. et al.) with slight modification. Solubilized bovine cartilage type II collagen (product of Elastine Products, U.S.A.) was emulsified in complete Freund's adjuvant (product of DIFCO Lab., U.S.A.). Male mice of DBA/1j strain (6 week-old; product of Nippon Charles River, Japan) were immunized by injection at the base of the tail with 150 μg of the emulsified collagen. After twenty one days from the immunization, arthritis was induced by a booster immunization of 150 μg of the emulsified collagen prepared in the same manner as above at the base of the tail again. A test compound was orally administered daily at the dose of 10 mg/kg from the first immunization. Mice were observed daily 5 days after the booster immunization for the onset of arthritis, and an arthritic score was derived by grading the severity of involvement of each paw five scales (0-4) according to the method of Wood, F. D. et al. [cf. Int. Arch. Allergy Appl. The severity of arthritis was estimated by the sum of the scores of all 4 paws, and the onset of the disease was determined when score 1 was observed.

[6] = known from literature; cited from earlier work

In the case of `CC(=O)c1c(C)nc(-c2ccccc2)nc1SCC(=O)Nc1ccc(Cl)cc1` [2-(5-acetyl-6-methyl-2-phenyl-4-pyrimidinylthio)-N-(4-chlorophenyl)acetamide], the “antibacterial activity against Bacillus subtilis” value (Bacillus subtilis) is given as “shows antibacterial activity against Bacillus subtilis”.
With `CCCN(CCC)C(=O)CNc1nc(-c2ccc(C(F)(F)F)cc2)nc(C)c1C` [Example 6, 2-[5,6-Dimethyl-2-(4-trifluoromethylphenyl)-4-pyrimidinylamino]-N,N-dipropylacetamide] the minimal effective dose [1] was 0.3 mg/kg, the IC50 [2] was 0.23 nM and the “onset of arthritis delayed until (days after the booster immunization)” value (“onset of arthritis delayed until” for short) ([3]; 10 mg/kg oral, 5 consecutive days a week for 8 weeks) was 21 days. The “severity of arthritis versus control group” value ([3]; 10 mg/kg oral, 5 days a week, at least until day 34, last day of the experiment) was “much lower than the control group” and the “effect on collagen-induced arthritis inhibitory test (conclusion)” value [3] was “potent effect”.
Molecule `CCCN(C(=O)CNc1nc(-c2ccccc2)nc(C)c1C)c1ccccc1` [Example 52, 2-(5,6-Dimethyl-2-phenyl-4-pyrimidinylamino)-N-phenyl-N-propylacetamide] has a minimal effective dose [1] of 0.1 mg/kg, an IC50 [2] of 29.5 nM and an ED25 [4] of 23.5 mg/kg.
With `CCCN(CCC)C(=O)CNc1cc(-c2ccccc2)nc(-c2ccccc2)n1` [Example 93, 2-(2,6-Diphenyl-4-pyrimidinylamino)-N,N-dipropylacetamide] the “severity of arthritis (arthritic score) versus control group” value [5] was “much lower than the control group”, the “onset of arthritis delayed until” value [5] was 40 days and the “effect on collagen-induced arthritis inhibitory test (conclusion)” value [5] was “potent effect”. The IC50 [2] was 4.1 nM.
With `CCCN(CCC)C(=O)COc1nc(-c2ccccc2)nc(C)c1C` [Example 136, 2-(5,6-dimethyl-2-phenyl-4-pyrimidinyloxy)-N,N-dipropylacetamide] the minimal effective dose [1] was 0.3 mg/kg, the “severity of arthritis (arthritic score) versus control group” value [5] was “much lower than the control group” and the “onset of arthritis delayed until” value [5] was 34 days. For the same molecule, the “effect on collagen-induced arthritis inhibitory test (conclusion)” value [5] was “potent effect” and the IC50 [2] was 0.34 nM.
With `Cc1nc(-c2ccc(Cl)cc2)nc(OCC(=O)N(C)c2ccccc2)c1C` [Example 144, 2-[2-(4-Chlorophenyl)-5,6-dimethyl-4-pyrimidinyloxy]-N-methyl-N-phenylacetamide] the “severity of arthritis (arthritic score) versus control group” value [5] was “much lower than the control group”, the “onset of arthritis delayed until” value [5] was 37 days and the “effect on collagen-induced arthritis inhibitory test (conclusion)” value [5] was “potent effect”. It also gave an IC50 [2] of 0.31 nM.
For `CCN(C(=O)COc1nc(-c2ccc(N)cc2)nc(C)c1C)c1ccccc1` [Example 165, 2-[2-(4-aminophenyl)-5,6-dimethyl-4-pyrimidinyloxy]-N-ethyl-N-phenylacetamide], the IC50 [2] was 5.07 nM, the “suppression of arthritis as compared with control” value ([3]; 10 mg/kg oral, 5 days a week) was “markedly suppressed the arthritis as compared with control group” and the “effect on collagen-induced arthritis inhibitory test (conclusion)” value [3] was “potent effect”.
In the case of `CCCN(C(=O)COc1nc(-c2ccccc2)nc(C)c1C)c1ccccc1` [Example 178, 2-(5,6-Dimethyl-2-phenyl-4-pyrimidinyloxy)-N-phenyl-N-propylacetamide], the IC50 [2] is reported as 0.57 nM, the “suppression of arthritis as compared with control” value ([3]; 10 mg/kg oral, 5 days a week) is reported as “the arthritis was suppressed as compared with the control” and the “effect on collagen-induced arthritis inhibitory test (conclusion)” value [3] is reported as “less potent effect”.
In the case of `C[C@]12CC[C@@H](O)C[C@@H]1CC[C@@H]1[C@@H]2CC[C@]2(C)[C@@H](C(=O)CO)CC[C@@H]12` [THDOC, allotetrahydrodeoxycorticosterone], the “effect in isoniazid-induced clonic convulsion test (known drugs)” value (from here on “effect … (known drugs)”) [6] is listed as “positive effect”.
For `CC(=O)[C@H]1CC[C@H]2[C@@H]3CC[C@H]4C[C@H](O)CC[C@]4(C)[C@H]3CC[C@]12C` [allopregnanolone], the “effect … (known drugs)” value [6] is listed as “positive effect”.
For `CN1C(=O)CN=C(c2ccccc2)c2cc(Cl)ccc21` [diazepam], the “effect … (known drugs)” value [6] is listed as “positive effect”.
